In PubChem BioAssay (NCI):
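Step 1: Grow cells in 96-well plates. Step 2: Expose to compound for 48 hours at 5 concentrations. Step 3: Interpolate endpoints linearly; if unreached, use highest concentration. The concentration for 50% growth inhibition is given as GI50. TGI denotes the concentration required for complete inhibition of growth.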

Experiments:
Experiment in all cases: inhibition of tumour cell growth, NCI panel, 48 h
UO-31 renal = test system: UO-31 renal
HT29 colon = test system: HT29 colon
SK-MEL-5 melanoma = test system: SK-MEL-5 melanoma
IGROV1 ovarian = test system: IGROV1 ovarian
MALME-3M melanoma = test system: MALME-3M melanoma
SNB-75 CNS = test system: SNB-75 CNS
UACC-62 melanoma = test system: UACC-62 melanoma
NCI-H23 lung = test system: NCI-H23 lung
OVCAR-5 ovarian = test system: OVCAR-5 ovarian
SR leukemia = test system: SR leukemia

SMILES	TGI (UO-31 renal) [µM]	TGI (HT29 colon) [µM]	TGI (SK-MEL-5 melanoma) [µM]	TGI (IGROV1 ovarian) [µM]	TGI (MALME-3M melanoma) [µM]	TGI (SNB-75 CNS) [µM]	TGI (UACC-62 melanoma) [µM]	TGI (NCI-H23 lung) [µM]	TGI (OVCAR-5 ovarian) [µM]	GI50 (HT29 colon) [µM]	GI50 (SK-MEL-5 melanoma) [µM]	GI50 (OVCAR-5 ovarian) [µM]	GI50 (SNB-75 CNS) [µM]	GI50 (UACC-62 melanoma) [µM]	GI50 (NCI-H23 lung) [µM]	GI50 (UO-31 renal) [µM]	GI50 (IGROV1 ovarian) [µM]	GI50 (MALME-3M melanoma) [µM]	GI50 (SR leukemia) [µM]	TGI (SR leukemia) [µM]
COc1ccc(C=O)c([N+](=O)[O-])c1	> 100	63.8	> 100	> 100	> 100	> 100	> 100	> 100	–	–	–	–	–	–	–	–	–	–	–	–
COC(=O)C1CC2CC(=NNC(N)=O)CC2C1 (stereo not given)	> 100	> 100	> 100	> 100	> 100	> 100	> 100	> 100	> 100	–	–	–	–	–	–	–	–	–	–	–
COc1cc2c3c(n(C)c(=O)c2cc1OC)-c1cc2c(cc1/C3=C\CCCCN1C(=O)c3ccccc3C1=O)OCO2	–	> 100	39.4	–	–	> 100	37.6	19.2	> 100	18	13	74	28.5	6.01	1.34	–	–	–	–	–
O=C(/C=C\c1cccc([N+](=O)[O-])c1)/C=C/c1cccc([N+](=O)[O-])c1	4.9	3.32	> 100	6.3	> 100	66.6	> 100	> 100	> 100	1.4	61.3	19.7	13.3	14.8	4.43	1.7	2.44	37.9	–	–
CN=c1ccc2nc3ccc(N)cc3sc-2c1	21.2	34.3	1.88	6.24	3.45	28.7	14	12.9	23.7	8.44	0.448	9.54	10.8	2.61	1.83	4.56	2.54	1.09	–	–
O=C(NN1C(=O)CSC12CCCCC2)c1[nH]c2ccc(Br)cc2c1-c1ccccc1	68.9	31.5	> 100	28.6	41.3	33.7	39.8	41.5	95.5	13.9	31.2	31.3	15.9	10.9	19.4	22.4	11.3	20.3	–	–
O=C1/C(=C/c2ccccc2[N+](=O)[O-])Cc2ccccc21	2.68	3.15	14	8.59	5.71	–	3.38	7	5.36	0.931	3.11	2.19	–	1.64	2.2	1.21	1.25	2.28	0.495	> 100
COc1ccc(-c2cc(Cc3cccs3)c(=O)[nH]n2)cc1	> 100	> 100	49.5	> 100	> 100	> 100	> 100	> 100	> 100	–	–	–	–	–	–	–	–	–	–	–
